Results on 5 molecules are retold here after patent publication US6214860A, “Synergistic antitumor composition containing a naphthalensulphonic acid derivative” (Pharmacia & Upjohn S.p.A., priority 1997, dated 2001).

Like-named read-outs stand apart in the source and are kept apart here.

The subject of data set [1] is M5076 murine reticulosarcoma cells. As to the kind of experiment: In vitro antiproliferative activity (% cell growth vs untreated control). The data set is classed as cell-based. To be noted: for antiproliferative activity in the presence of PNU 145156E: in words, PNU 145156E 50000 ng/ml vs 0 ng/ml. As to the method: (§1) The combinations were assayed in vitro on M5076 murine reticulosarcoma cells and in vivo on the same tumor cells implanted intramuscularly.

Data set [2] shares this test system. In words: In vivo antitumor activity in mice implanted with M5076 tumor cells. Details: species or system Mice C57BL/6. The following applies: days 1, 4, 7 and 11, combination: + PNU 145156E 100 mg/kg ip 2 h prior; for A.U.C. % inhib. (inhibition of tumor growth): one week after last treatment; for TGD (tumor growth delay): time to reach one gram. As to the method:
as §1
The antitumor activity was calculated in terms of:
% AUC: inhibition of tumor growth
T/C %: percentage of median increase in survival time
The A.U.C. (area under the curve) of the tumor growth was calculated by using the trapezoidal method, and is referred to the measurement of tumor growth performed one week after the last treatment. The percentage of inhibition (% A.U.C.) was calculated using the following formula: [formula]
The percentage of increase in survival time (T/C% ) was calculated using the following formula: [formula]
Mice were monitored according to guidelines and sacrificed when tumor weight exceeded 10% body weight. Tumor growth delay (TGD) is the time, in days, to reach one gram of tumor weight in treated animals as compared to control animals.
Evaluation of statistical significance was performed as follows: Student's Test for cytotoxic activity, Two-Way Anova for increase in survival time (T/C %) with combined treatment in comparison to the increase exerted separately by the two drugs, Tukey Test for tumor weight reduction (AUC % inhibition) with combined treatment in comparison to the reduction exerted separately by the two drugs.
The criterion for statistical significance was the 0.01 level ( )

The conditions of data set [3]: days 1, 4, 7 and 11, combination: + PNU 145156E 100 mg/kg ip 2 h prior. On the procedure: Mice C57BL/6 were implanted with M5076 murine reticulosarcoma cells. PNU 145156E was administered ip 2 h prior to cytotoxic drugs administered iv starting treatment 24 h after tumor implant. Treatments were performed at days 1, 4, 7 and 11.
The toxicological evaluation was performed in terms of body weight loss and spleen and liver reduction.

Setting [4] is: cytotoxic 40 ng/ml + PNU 145156E 50000 ng/ml, 72 h, 37° C.

As for `CC[C@@]1(O)C(=O)OCc2c1cc1n(c2=O)Cc2cc3c(N)cccc3nc2-1` [9-AC, 9-aminocamptothecin], the activity at 0.0025 µg/mL in data set [1] (Mus musculus, M5076, 72 h, cytotoxic 2.5 ng/ml, PNU 145156E 0 ng/ml, 72 h, 37° C., read-out: % cell growth ± S.E.) was 88 ± 10%. The activity at 0.01 µg/mL in data set [1] (Mus musculus, M5076, 72 h, cytotoxic 10 ng/ml, PNU 145156E 0 ng/ml, 72 h, 37° C., read-out: % cell growth ± S.E.) worked out at 28 ± 2%. In data set [1] (Mus musculus, M5076, 72 h, cytotoxic 40 ng/ml, PNU 145156E 0 ng/ml, 72 h, 37° C., read-out: % cell growth ± S.E.), the activity at 0.04 µg/mL was found to be 7 ± 2%. Further, the “% cell growth ± S.E.” value in data set [1] (cytotoxic 2.5 ng/ml + PNU 145156E 50000 ng/ml, 72 h, 37° C.) was 76 ± 6%; in data set [1] (cytotoxic 10 ng/ml + PNU 145156E 50000 ng/ml, 72 h, 37° C.), 29 ± 9%; in data set [1] (setting [4]), 8 ± 3%. Also, the “antiproliferative activity in the presence of PNU 145156E” value (from here on “antiproliferative activity”) in data set [1] is “unchanged in the presence of PNU 145156E”. The “T/C % (median increase in survival time)” value in data set [2] (9AC 2.5 mg/kg iv) is 121%; in data set [2] (9AC 3 mg/kg iv), 125%; in data set [2] (9AC 3.5 mg/kg iv), 128%. Further, the figures for the Tumor weight in data set [2] (9AC 2.5 mg/kg iv), in data set [2] (9AC 3 mg/kg iv) and in data set [2] (9AC 3.5 mg/kg iv) were 2.4 ± 0.9 gr, 2.13 ± 0.8 gr and 1.58 ± 0.6 gr, respectively. For the same molecule, the “A.U.C. % inhib. (inhibition of tumor growth)” value in data set [2] (9AC 2.5 mg/kg iv) is recorded as 45%; in data set [2] (9AC 3 mg/kg iv) it was 48%; in data set [2] (9AC 3.5 mg/kg iv) it was 68%. In addition, the figures for the “TGD (tumor growth delay)” value in data set [2] (9AC 2.5 mg/kg iv), in data set [2] (9AC 3 mg/kg iv) and in data set [2] (9AC 3.5 mg/kg iv) were 5 days, 6 days and 8 days, respectively. For the same molecule, the Toxic/total mice in data set [3] (9AC 2.5 mg/kg iv) is recorded as 0/10; in data set [3] (9AC 3 mg/kg iv) it was 0/10; in data set [3] (9AC 3.5 mg/kg iv), 1/10.

Turning to `N.N.[Cl][Pt][Cl]` [CIS, cisplatin], the “% cell growth ± S.E.” value in data set [1] (cytotoxic 8 ng/ml + PNU 145156E 50000 ng/ml, 72 h, 37° C.) is 83 ± 7%; in data set [1] (cytotoxic 8 ng/ml, PNU 145156E 0 ng/ml, 72 h, 37° C.), 91 ± 3%; in data set [1] (setting [4]), 46 ± 3%; in data set [1] (cytotoxic 40 ng/ml, PNU 145156E 0 ng/ml, 72 h, 37° C.) it was 52 ± 7%; in data set [1] (cytotoxic 200 ng/ml + PNU 145156E 50000 ng/ml, 72 h, 37° C.), 4 ± 1%; in data set [1] (cytotoxic 200 ng/ml, PNU 145156E 0 ng/ml, 72 h, 37° C.), 9 ± 5%. In addition, in data set [1], the “antiproliferative activity” value is “unchanged in the presence of PNU 145156E”. Also, in data set [2] (CIS 6 mg/kg iv), the “T/C % (median increase in survival time)” value was determined as 130%. The Tumor weight in data set [2] (CIS 6 mg/kg iv) is reported as 1.1 ± 0.1 gr. In addition, the “A.U.C. % inhib. (inhibition of tumor growth)” value in data set [2] (CIS 6 mg/kg iv) was 75%. In data set [2] (CIS 6 mg/kg iv), the “TGD (tumor growth delay)” value was found to be 11 days.

With `CCc1c2c(nc3ccc(OC(=O)N4CCC(N5CCCCC5)CC4)cc13)-c1cc3c(c(=O)n1C2)COC(=O)[C@]3(O)CC` [CPT-11, irinotecan], in data set [2] (CPT-11 60 mg/kg iv), the “T/C % (median increase in survival time)” value is given as 215%, the Tumor weight is listed as 0.05 ± 0.2 gr, the “A.U.C. % inhib. (inhibition of tumor growth)” value turned out to be 100% and the “TGD (tumor growth delay)” value came out at 34 days. The Toxic/total mice in data set [3] (CPT-11 60 mg/kg iv) is 0/8.

Consider `CC(=O)O[C@H]1C(=O)[C@@]2(C)[C@H]([C@H](OC(=O)c3ccccc3)[C@]3(O)C[C@H](OC(=O)[C@H](O)[C@@H](NC(=O)c4ccccc4)c4ccccc4)C(C)=C1C3(C)C)[C@]1(OC(C)=O)CO[C@@H]1C[C@@H]2O` [PACLITAXEL, paclitaxel], for which the activity at 0.00625 µg/mL in data set [1] (Mus musculus, M5076, cytotoxic 6.25 ng/ml, PNU 145156E 0 ng/ml, 72 h, 37° C., read-out: % cell growth ± S.E.) came to 89 ± 1%. In addition, in data set [1] (Mus musculus, M5076, cytotoxic 25 ng/ml, PNU 145156E 0 ng/ml, 72 h, 37° C., read-out: % cell growth ± S.E.), the activity at 0.025 µg/mL turned out to be 50 ± 7%. In addition, in data set [1] (Mus musculus, M5076, cytotoxic 100 ng/ml, PNU 145156E 0 ng/ml, 72 h, 37° C., read-out: % cell growth ± S.E.), the activity at 0.1 µg/mL is 1 ± 1%. Also, the “% cell growth ± S.E.” value in data set [1] (cytotoxic 6.25 ng/ml + PNU 145156E 50000 ng/ml, 72 h, 37° C.) was 87 ± 14%; in data set [1] (cytotoxic 25 ng/ml + PNU 145156E 50000 ng/ml, 72 h, 37° C.), 43 ± 1%; in data set [1] (cytotoxic 100 ng/ml + PNU 145156E 50000 ng/ml, 72 h, 37° C.) it was 2 ± 0%. Also, in data set [1], the “antiproliferative activity” value is given as “unchanged in the presence of PNU 145156E”. Moreover, the “T/C % (median increase in survival time)” value stood at 108% in data set [2] (TX 33 mg/kg iv) and 118% in data set [2] (TX 40 mg/kg iv). For the same molecule, the Tumor weight in data set [2] (TX 33 mg/kg iv) worked out at 2.34 ± 0.9 gr; in data set [2] (TX 40 mg/kg iv) it was 1.3 ± 0.7 gr. The “A.U.C. % inhib. (inhibition of tumor growth)” value in data set [2] (TX 33 mg/kg iv) was 77%; in data set [2] (TX 40 mg/kg iv) it was 93%. Further, the “TGD (tumor growth delay)” value in data set [2] (TX 33 mg/kg iv) is listed as 8 days; in data set [2] (TX 40 mg/kg iv), 9 days. For the same molecule, the Toxic/total mice in data set [3] (TX 33 mg/kg iv) and in data set [3] (TX 40 mg/kg iv) was 0/10 each time.

`CCc1c2c(nc3ccc(O)cc13)-c1cc3c(c(=O)n1C2)COC(=O)[C@]3(O)CC` [SN-38]: the activity at 0.0065 µg/mL in data set [1] (Mus musculus, M5076, 72 h, cytotoxic 6.5 ng/ml, PNU 145156E 0 ng/ml, 72 h, 37° C., read-out: % cell growth ± S.E.) is 75 ± 5%. The activity at 0.0125 µg/mL in data set [1] (Mus musculus, M5076, 72 h, cytotoxic 12.5 ng/ml, PNU 145156E 0 ng/ml, 72 h, 37° C., read-out: % cell growth ± S.E.) came out at 19 ± 2%. For the same molecule, the activity at 0.035 µg/mL in data set [1] (Mus musculus, M5076, 72 h, cytotoxic 35 ng/ml, PNU 145156E 0 ng/ml, 72 h, 37° C., read-out: % cell growth ± S.E.) came out at 5 ± 1%. The “% cell growth ± S.E.” value was 74 ± 7% in data set [1] (cytotoxic 6.5 ng/ml + PNU 145156E 50000 ng/ml, 72 h, 37° C.) and 25 ± 7% in data set [1] (cytotoxic 12.5 ng/ml + PNU 145156E 50000 ng/ml, 72 h, 37° C.). Further, in data set [1], the “antiproliferative activity” value is recorded as “unchanged in the presence of PNU 145156E”.
